Counter-ions that a name gives are not always drawn.
Key:
[1] = target: presynaptic dopamine receptor; assay: 3H-ADTN presynaptic dopamine receptor binding assay (displacement of 3H-ADTN from calf caudate nucleus membranes); conditions: inhibition of specific binding of 0.2 nM 3H-ADTN by 50%, 60 min, 25° C.
Method: The presynaptic dopamine receptor binding properties indicative of the presynaptic dopamine receptor regulatory, e.g. agonistic activity, of the compounds of the invention can be determined in the dopamine binding assay in vitro by the following method involving the displacement of the dopamine agonist 2-amino-6,7-dihydroxy-1,2,3,4-tetrahydronaphthalene (^3 H-ADTN) from membranes of calf-caudate nucleus.
In the binding assay, triplicate 2 ml samples (equivalent to 5 mg/ml of brain tissue) of the calf brain caudate nucleus membrane suspension are incubated for 60 minutes at 25° C. with 0.2 nM ^3 H-ADTN without or in the presence of various concentrations of test compound in solvent. The reaction is terminated by filtering with 5 ml of cold 50 mM Tris-HCl buffer pH 7.7. The filters are placed in scintillation vials with 5 ml of scintillation solution, disrupted by vigorous mechanical shaking for 90 minutes, and counted for radioactivity.
The IC50 values which represent the concentration of test compounds required to inhibit the specific binding of 0.2 nM ^3 H-ADTN by 50% are determined graphically.

[2] = system: presynaptic dopamine receptor (dopamine autoreceptor); assay: GBL model in the rat: in-vivo presynaptic dopamine agonist (dopamine autoreceptor agonist) activity, inhibition of GBL-induced DOPA accumulation; conditions: dose inhibiting DOPA accumulation by 50%
Method: The in-vivo presynaptic dopamine agonist activity (also called dopamine autoreceptor agonist activity) is determined in the rat gamma-butyrolactone (GBL) model by a modification of the procedure described by Walters and Roth, Naunyn Schmiedeberg's Arch. Pharmacol. 296, 5 (1976). In this model, a presynaptic dopamine agonist inhibits the GBL-induced accumulation of the dopamine precursor DOPA in the brain after pretreatment with 3-hydroxybenzylhydrazine (NDS-1015), a DOPA decarboxylase inhibitor.
Test compounds are dissolved in 0.9% saline, with sodium metabisulfite to prevent oxidation, if required. Animals are treated with i.p. injections of solutions of test compounds or saline, followed by gamma-butyrolactone (GBL, 750 mg/kg i.p.) or saline for control animals 15 minutes later, and finally with NSD-1015 (100 mg/kg i.p.) 5 minutes after the administration of GBL. Thirty minutes after the administration of NSD-1015, animals are sacrificed, brains are removed, and striatae are isolated, then frozen at -70° C. until deproteinization, extraction and analysis. The ED50 (dose at which the DOPA accumulation is inhibited by 50%) values are determined by plotting the percent inhibition of DOPA accumulation versus log10 of the dose of test compound administered. The same method is also applicable to oral administration of the test compounds.

IC50 [1] [nM] | Structure (SMILES) | ED50 in the GBL model ([2]; i.p.) | ED50 in the GBL model ([2]; p.o.) [mg/kg]
~150 | CCCN(CCC)C1CSc2sccc2C1 (stereo not drawn) [N,N-dipropyl-5,6-dihydro-4H-thieno[2,3-b]thiopyran-5-amine hydrochloride] | – | –
– | CCCN(CCC)C1CSc2sccc2C1 (stereo not drawn) [5-dipropylamino-5,6-dihydro-4H-thieno[2,3-b]thiopyran] | about 2.6 mg/kg | ~5.6

From US4816474A, “Amino substituted thienothiopyran derivatives, composition containing them, and method of using them to stimulate presynaptic dopamine receptors” (Ciba-Geigy Corporation, priority 1987, dated 1989)
